Each structure is given as a SMILES string. Structures can show the parent of a compound that is named as a salt.

For this test, the target named is T1, epithelial sodium channel (ENaC) (Homo sapiens, UniProt P37088+P51168+P51170).
T1 construct: host or cells: primary human bronchial epithelial cells (HBECs), differentiated at air-liquid interface
T1 sequence (P37088 1-669): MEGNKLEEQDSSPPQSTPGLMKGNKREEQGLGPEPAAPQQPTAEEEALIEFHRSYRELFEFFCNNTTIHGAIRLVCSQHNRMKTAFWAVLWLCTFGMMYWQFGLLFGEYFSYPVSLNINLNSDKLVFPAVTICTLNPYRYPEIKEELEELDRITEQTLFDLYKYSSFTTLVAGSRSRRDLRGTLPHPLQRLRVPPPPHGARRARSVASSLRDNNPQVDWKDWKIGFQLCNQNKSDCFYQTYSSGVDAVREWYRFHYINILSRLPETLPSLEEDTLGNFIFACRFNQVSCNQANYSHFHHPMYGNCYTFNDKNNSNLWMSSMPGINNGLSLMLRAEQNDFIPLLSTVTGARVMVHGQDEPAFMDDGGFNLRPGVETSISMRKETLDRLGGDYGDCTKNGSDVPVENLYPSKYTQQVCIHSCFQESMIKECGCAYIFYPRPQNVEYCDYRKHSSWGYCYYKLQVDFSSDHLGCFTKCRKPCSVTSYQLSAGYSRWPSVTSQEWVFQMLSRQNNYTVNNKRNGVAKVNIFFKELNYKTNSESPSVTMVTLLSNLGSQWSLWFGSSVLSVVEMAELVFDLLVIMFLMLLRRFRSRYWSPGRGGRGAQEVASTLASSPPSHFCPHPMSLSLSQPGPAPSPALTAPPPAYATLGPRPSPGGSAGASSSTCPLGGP
T1 sequence (P51168 1-640): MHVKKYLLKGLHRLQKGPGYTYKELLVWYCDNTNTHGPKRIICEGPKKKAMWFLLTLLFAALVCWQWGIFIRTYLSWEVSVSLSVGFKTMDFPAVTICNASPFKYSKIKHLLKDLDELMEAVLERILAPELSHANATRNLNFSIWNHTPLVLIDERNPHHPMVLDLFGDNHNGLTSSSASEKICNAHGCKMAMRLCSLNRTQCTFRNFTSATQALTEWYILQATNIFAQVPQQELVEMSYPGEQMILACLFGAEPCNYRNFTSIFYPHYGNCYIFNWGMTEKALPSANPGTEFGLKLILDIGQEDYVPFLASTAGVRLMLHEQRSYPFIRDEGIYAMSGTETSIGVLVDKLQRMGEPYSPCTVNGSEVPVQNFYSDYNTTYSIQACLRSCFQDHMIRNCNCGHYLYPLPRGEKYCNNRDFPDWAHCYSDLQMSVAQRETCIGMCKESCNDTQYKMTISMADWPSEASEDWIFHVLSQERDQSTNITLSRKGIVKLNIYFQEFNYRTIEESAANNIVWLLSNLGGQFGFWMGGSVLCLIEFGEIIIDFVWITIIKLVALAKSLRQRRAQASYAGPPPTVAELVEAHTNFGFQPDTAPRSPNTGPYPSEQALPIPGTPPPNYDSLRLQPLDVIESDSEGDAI
T1 sequence (P51170 1-649): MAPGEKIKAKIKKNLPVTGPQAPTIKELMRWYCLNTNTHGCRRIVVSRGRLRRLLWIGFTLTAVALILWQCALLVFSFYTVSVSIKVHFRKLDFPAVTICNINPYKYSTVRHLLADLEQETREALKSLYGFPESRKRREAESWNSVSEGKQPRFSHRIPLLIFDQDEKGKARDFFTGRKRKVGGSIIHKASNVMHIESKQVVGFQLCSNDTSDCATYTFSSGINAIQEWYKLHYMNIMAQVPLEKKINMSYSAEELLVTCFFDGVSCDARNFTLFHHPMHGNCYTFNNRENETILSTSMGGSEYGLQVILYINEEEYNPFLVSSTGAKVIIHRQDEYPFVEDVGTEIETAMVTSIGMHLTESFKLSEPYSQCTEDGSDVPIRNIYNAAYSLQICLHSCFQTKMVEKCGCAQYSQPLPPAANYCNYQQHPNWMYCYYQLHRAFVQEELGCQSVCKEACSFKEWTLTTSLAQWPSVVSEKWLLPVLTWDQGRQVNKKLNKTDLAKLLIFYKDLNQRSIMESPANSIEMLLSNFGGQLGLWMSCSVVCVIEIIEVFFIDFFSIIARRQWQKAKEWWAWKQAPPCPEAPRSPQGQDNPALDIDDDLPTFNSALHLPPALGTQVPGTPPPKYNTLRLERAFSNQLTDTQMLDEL
Kind of test: Short circuit current (ISC) measurements in Human Bronchial Epithelial cells. To be noted: HBECs at air-liquid interface, Ussing chamber, apical addition; read-out: IC50 (inhibition of the amiloride-sensitive ISC). The class given is cell-based. How it is done: Human Bronchial Epithelial cells (HBECs) (Cambrex) were cultured under air-liquid interface conditions to provide a well differentiated mucociliary phenotype.
HBECs were cultured using a modification of the method described by Gray and colleagues
(Gray et al., 1996). Cells were seeded in plastic T-162 flasks and were grown in bronchial epithelial cell growth medium (BEGM; Cambrex) supplemented with bovine pituitary extract (52 μg/mL), hydrocortisone (0.5 μg/mL), human recombinant epidermal growth factor ([…]), epinephrine (0.5 μg/mL), transferrin (10 μg/mL), insulin (5 μg/mL), retinoic acid (0.1 μg/mL), triiodothyronine ([…]), gentamycin (50 μg/mL) and amphotericin B (50 μg/mL). Medium was changed every 48 hours until cells were 90% confluent. Cells were then passaged and seeded (8.25×10^5 cells/insert) on polycarbonate Snapwell inserts (Costar) in differentiation media containing 50% DMEM in BEGM with the same supplements as above but without triiodothyronine and a final retinoic acid concentration of 50 nM (all-trans retinoic acid). Cells were maintained submerged for the first 7 days in culture, after which time they were exposed to an apical air interface for the remainder of the culture period. At this time, media was changed to DMEM:F12 media containing 2% v/v Ultroser G for the remainder of culture. Amphotericin B was removed from all media 3 feeds prior to use in the Ussing Chambers. Cells were used between days 7 and 21 after establishment of the apical-air interface. At all stages of culture, cells were maintained at 37° C. in 5% CO2 in an air incubator.
Snapwell inserts were mounted in Vertical Diffusion Chambers (Costar) and were bathed with continuously gassed Ringer solution (5% CO2 in O2; pH 7.4) maintained at 37° C. containing (in mM): 120 NaCl, 25 NaHCO3, 3.3 KH2PO4, 0.8 K2HPO4, 1.2 CaCl2, 1.2 MgCl2, and 10 glucose. The solution osmolarity was between 280 and 300 mOsmol/kg H2O for all physiological salt solutions used. Cells were voltage clamped to 0 mV (model EVC4000; WPI). RT was measured by applying a 1- or 2-mV pulse at 30-s intervals and calculating RT by Ohm's law. Data were recorded using a PowerLab workstation (ADInstruments).
Test compounds were prepared as a 10 mM stock solution in DMSO (95%). Serial 3-fold dilutions were freshly prepared in an appropriate vehicle (distilled H2O or Ringers solution). […] At the completion of the concentration-response experiment, amiloride (10 μM) was added into the apical chamber to enable the total amiloride-sensitive current to be measured. […]
Results are expressed as the mean % inhibition of the amiloride-sensitive ISC. […] Cell inserts were typically run in duplicate and the IC50 calculated on the mean % inhibition data.
As usually defined, the IC50 is the concentration that inhibits the measured activity by half. In the case of `N=C(NCCCCCCNS(=O)(=O)c1cccc2ccccc12)NC(=O)c1nc(Cl)c(N)nc1N` [Example 3], the IC50 turned out to be 16.4 nM.
For `COC(=O)[C@H](CCCCNC(=N)NC(=O)c1nc(Cl)c(N)nc1N)NS(=O)(=O)c1ccc(C)cc1` [Example 17, (S)-6-[N′-(3,5-Diamino-6-chloro-pyrazine-2-carbonyl)-guanidino]-2-(toluene-4 sulfonylamino)-hexanoic acid methyl ester trifluoroacetate], the half-inhibitory concentration (IC50) amounted to 33 nM.
For `N=C(NCCCCNC(=O)Cc1ccccc1)NC(=O)c1nc(Cl)c(N)nc1N` [Example 25] the value was 18 nM; for `N=C(NCCCC(=O)N(Cc1ccccc1)[C@H]1CC2CC[C@H](C1)N2Cc1ccccc1)NC(=O)c1nc(Cl)c(N)nc1N` [Example 12], 65.9 nM.

The values are drawn from US20080312212A1, “Organic Compounds” (Novartis AG, priority 2005, published 2008).
